Reference: paper PMC11964630 (Journal of Pharmaceutical Analysis, 2024)

System: U87MG xenograft-bearing NOD/SCID mice
Test: Ex vivo biodistribution in U87MG xenograft model
Set-up: species or system mouse
Settings: single i.v. dose of atezolizumab 20 mg/kg, 24 h before [^18F]AlF-NOTA-PCP2

atezolizumab: anti-PD-L1 antibody used for blockade, 20 mg/kg
decrease in tracer uptake in U87MG tumors: 92.2%
